Where “and” joins values, the source holds several entries; their conditions need not be identical. Equal entries are not always repeated. Toxic doses and inconclusive results are not listed. No stated cut-off is given here; in the data, active means T/C of 150% or more; inactive means T/C below 125%.
System: L1210 leukemia ip in BDF1 mice, survival T/C
Test: NCI In Vivo Anticancer Drug Screen. Data for tumor model L1210 Leukemia (intraperitoneal) in B6D2F1 (BDF1) mice
Conditions: endpoint: mean survival time, higher = longer survival
Outline: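 Tumor cells were implanted, animals were treated, and survival was followed. The result divides the treated measurement by the vehicle-control measurement.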

[1] = dose: 100.0 mg/kg/injection, schedule: Q04DX003 (ip), vehicle: saline
[2] = dose: 200.0 mg/kg/injection, schedule: Q04DX003 (ip), vehicle: saline
[3] = dose: 100.0 mg/kg/injection, schedule: Q04DX003 (ip), vehicle: Klucel (hydroxypropylcellulose) (HPC)
[4] = dose: 200.0 mg/kg/injection, schedule: Q04DX003 (ip), vehicle: Klucel (hydroxypropylcellulose) (HPC)
[5] = dose: 400.0 mg/kg/injection, schedule: Q04DX003 (ip), vehicle: Klucel (hydroxypropylcellulose) (HPC)
[6] = dose: 100.0 mg/kg/injection, schedule: Q01DX001 (ip), vehicle: saline with Tween-80
[7] = dose: 200.0 mg/kg/injection, schedule: Q01DX001 (ip), vehicle: saline with Tween-80
[8] = dose: 400.0 mg/kg/injection, schedule: Q01DX001 (ip), vehicle: saline with Tween-80
[9] = dose: 100.0 mg/kg/injection, schedule: Q01DX009 (ip), vehicle: saline
[10] = dose: 200.0 mg/kg/injection, schedule: Q01DX009 (ip), vehicle: saline
[11] = dose: 400.0 mg/kg/injection, schedule: Q01DX009 (ip), vehicle: saline
[12] = dose: 400.0 mg/kg/injection, schedule: Q04DX003 (ip), vehicle: saline
[13] = dose: 100.0 mg/kg/injection, schedule: Q04DX003 (ip), vehicle: saline with Tween-80
[14] = dose: 25.0 mg/kg/injection, schedule: Q04DX003 (ip), vehicle: saline
[15] = dose: 50.0 mg/kg/injection, schedule: Q04DX003 (ip), vehicle: saline
[16] = dose: 100.0 mg/kg/injection, schedule: Q01DX009 (ip), vehicle: Klucel (hydroxypropylcellulose) (HPC)
[17] = dose: 200.0 mg/kg/injection, schedule: Q01DX009 (ip), vehicle: Klucel (hydroxypropylcellulose) (HPC)
[18] = dose: 400.0 mg/kg/injection, schedule: Q01DX009 (ip), vehicle: Klucel (hydroxypropylcellulose) (HPC)
[19] = dose: 50.0 mg/kg/injection, schedule: Q04DX003 (ip), vehicle: Klucel (hydroxypropylcellulose) (HPC)

Measured: T/C

O=C(NCc1ccccc1)c1ccccc1/C(=N/O)c1ccccc1
inactive: dose: 200.0 mg/kg/injection, schedule: Q01DX009 (ip), vehicle: saline with Tween-80 86 % of control

OC[P+](c1ccccc1)(c1ccccc1)c1ccccc1
inactive: [1] 98 % of control | [2] 98 % of control

COc1ccc(NCc2ccccc2O)cc1
inactive: dose: 100.0 mg/kg/injection, schedule: Q01DX001 (ip), vehicle: other 95 % of control | dose: 200.0 mg/kg/injection, schedule: Q01DX001 (ip), vehicle: other 87 % of control | dose: 400.0 mg/kg/injection, schedule: Q01DX001 (ip), vehicle: other 93 % of control

Cc1ccccc1N(C=O)c1ccccc1C
inactive: dose: 50.0 mg/kg/injection, schedule: Q01DX Z (ip), vehicle: methylcellulose (MC) 111 % of control | dose: 80.0 mg/kg/injection, schedule: Q01DX Z (ip), vehicle: methylcellulose (MC) 115 % of control | dose: 125.0 mg/kg/injection, schedule: Q01DX Z (ip), vehicle: methylcellulose (MC) 98 % of control and 114 % of control | dose: 180.0 mg/kg/injection, schedule: Q01DX Z (ip), vehicle: methylcellulose (MC) 115 % of control | dose: 240.0 mg/kg/injection, schedule: Q01DX Z (ip), vehicle: methylcellulose (MC) 97 % of control | dose: 250.0 mg/kg/injection, schedule: Q01DX Z (ip), vehicle: methylcellulose (MC) 93 % of control | dose: 300.0 mg/kg/injection, schedule: Q01DX Z (ip), vehicle: methylcellulose (MC) 109 % of control | dose: 360.0 mg/kg/injection, schedule: Q01DX Z (ip), vehicle: methylcellulose (MC) 100 % of control | dose: 500.0 mg/kg/injection, schedule: Q01DX Z (ip), vehicle: methylcellulose (MC) 106 % of control | dose: 1000.0 mg/kg/injection, schedule: Q01DX Z (ip), vehicle: methylcellulose (MC) 98 % of control

CCOP(=O)(OCC)OC(=O)N(CC)CC
inactive: dose: 100.0 mg/kg/injection, schedule: Q04DX002 (ip), vehicle: saline 112 % of control | dose: 200.0 mg/kg/injection, schedule: Q04DX002 (ip), vehicle: saline 120 % of control

O=[N+]([O-])c1ccc(/C=C/c2ccccc2)c([N+](=O)[O-])c1
inactive: [3] 104 % of control | [4] 98 % of control | [5] 101 % of control

C=CCCCCCCCCCC(CCCCCC)C(=O)O (stereo not drawn)
inactive: [6] 101 % of control | [7] 111 % of control | [8] 92 % of control

CC(=O)NC1C(OC(=O)c2ccccc2)OC2COCOC2C1OC(=O)c1ccccc1 (stereo not drawn)
inactive: [6] 90 % of control | [7] 97 % of control | [8] 92 % of control

Cc1c2ccccc2c(CNCCSCCCl)c2ccc3ccccc3c12
inactive: dose: 50.0 mg/kg/injection, schedule: Q01DX009 (ip), vehicle: saline 119 % of control | dose: 150.0 mg/kg/injection, schedule: Q01DX009 (ip), vehicle: saline 109 % of control | dose: 167.0 mg/kg/injection, schedule: Q01DX009 (ip), vehicle: saline 94 % of control

Clc1ccc(/C=C2\c3ccccc3-c3nc4ccccc4nc32)cc1
inactive: dose: 75.0 mg/kg/injection, schedule: Q04DX003 (ip), vehicle: saline 91 % of control | dose: 150.0 mg/kg/injection, schedule: Q04DX003 (ip), vehicle: saline 88 % of control

O=S(=O)(O)CCN1CCN(CCO)CC1
inactive: [9] 96 % of control | [1] 95 % of control | [10] 91 % of control | [2] 101 % of control | [11] 98 % of control | [12] 97 % of control

NC(N)=NCCCCCCN=C(N)N
inactive: dose: 6.25 mg/kg/injection, schedule: Q01DX Z (oral), vehicle: saline 106 % of control | dose: 6.25 mg/kg/injection, schedule: Q04DX003 (ip), vehicle: saline with Tween-80 100 % of control | dose: 12.5 mg/kg/injection, schedule: Q01DX Z (oral), vehicle: saline 103 % of control | dose: 12.5 mg/kg/injection, schedule: Q04DX003 (ip), vehicle: saline with Tween-80 100 % of control | dose: 25.0 mg/kg/injection, schedule: Q01DX Z (oral), vehicle: saline 103 % of control | dose: 25.0 mg/kg/injection, schedule: Q04DX003 (ip), vehicle: saline with Tween-80 99 % of control and 101 % of control

Cc1c(C/C(=N/O)C(=O)O)[nH]c(=S)[nH]c1=O
inactive: [13] 103 % of control | dose: 200.0 mg/kg/injection, schedule: Q04DX003 (ip), vehicle: saline with Tween-80 96 % of control | dose: 400.0 mg/kg/injection, schedule: Q04DX003 (ip), vehicle: saline with Tween-80 102 % of control

OCC(Cl)(Cl)Cl
inactive: [1] 104 % of control | [2] 96 % of control | [12] 107 % of control

CCN(CC)CCn1c2ccccc2c2cnccc21
inactive: [14] 100 % of control | [15] 97 % of control

NC1CCCCC1
inactive: [1] 109 % of control | [2] 102 % of control | [12] 100 % of control

CCCCCCCCCCCCCCCCC1(CC)NC(=O)NC1=O (stereo not drawn)
inactive: [3] 95 % of control | [4] 93 % of control | [5] 96 % of control

COC(=O)C1OC1c1cc(Br)ccc1OC (stereo not drawn)
inactive: dose: 100.0 mg/kg/injection, schedule: Q01DX001 (ip), vehicle: saline 102 % of control | dose: 200.0 mg/kg/injection, schedule: Q01DX001 (ip), vehicle: saline 103 % of control | dose: 400.0 mg/kg/injection, schedule: Q01DX001 (ip), vehicle: saline 102 % of control

CC(C)(C)CC(C)(C)c1ccc(Oc2ccc([N+](=O)[O-])cc2S(=O)(=O)O)cc1
inactive: [13] 97 % of control

CCOC(=O)CN1CCC(C(=O)OC)CC1
inactive: [9] 96 % of control | [1] 112 % of control | [10] 98 % of control | [2] 124 % of control | [11] 112 % of control | [12] 96 % of control

CCNC(=O)NCc1ccccc1Cl
inactive: dose: 100.0 mg/kg/injection, schedule: Q04DX002 (ip), vehicle: Klucel (hydroxypropylcellulose) (HPC) 97 % of control | dose: 200.0 mg/kg/injection, schedule: Q04DX002 (ip), vehicle: Klucel (hydroxypropylcellulose) (HPC) 102 % of control | dose: 400.0 mg/kg/injection, schedule: Q04DX002 (ip), vehicle: Klucel (hydroxypropylcellulose) (HPC) 112 % of control

NNC(=O)C1CC1
inactive: dose: 12.5 mg/kg/injection, schedule: Q04DX003 (ip), vehicle: saline 101 % of control | [14] 97 % of control | [15] 96 % of control and 103 % of control

Clc1ccc2c(c1)C(Nc1cc3c4ccccc4ccc3c3ccccc13)c1cc(Cl)cc(Cl)c1-2 (stereo not drawn)
inactive: [16] 88 % of control | [3] 90 % of control | [17] 88 % of control | [4] 95 % of control | [18] 86 % of control | [5] 93 % of control

O=Nc1ccc2cc(O)ccc2c1O
inactive: dose: 1.56 mg/kg/injection, schedule: Q01DX009 (ip), vehicle: Klucel (hydroxypropylcellulose) (HPC) 96 % of control | dose: 3.12 mg/kg/injection, schedule: Q01DX009 (ip), vehicle: Klucel (hydroxypropylcellulose) (HPC) 96 % of control | dose: 6.25 mg/kg/injection, schedule: Q01DX009 (ip), vehicle: Klucel (hydroxypropylcellulose) (HPC) 104 % of control | dose: 12.5 mg/kg/injection, schedule: Q01DX009 (ip), vehicle: Klucel (hydroxypropylcellulose) (HPC) 101 % of control | dose: 12.5 mg/kg/injection, schedule: Q04DX003 (ip), vehicle: Klucel (hydroxypropylcellulose) (HPC) 103 % of control | dose: 25.0 mg/kg/injection, schedule: Q04DX003 (ip), vehicle: Klucel (hydroxypropylcellulose) (HPC) 97 % of control | [19] 100 % of control

CCOC(=O)C1(C(=O)OCC)CCC(O)N1C(=O)c1ccccc1[N+](=O)[O-] (stereo not drawn)
inactive: [19] 97 % of control | [3] 91 % of control | [4] 91 % of control

CCN(C(=O)c1ccc(C(=O)N(CC)c2cccc(C)c2)cc1)c1cccc(C)c1
inactive: [16] 94 % of control | [17] 89 % of control | [18] 91 % of control

CCOC(=O)CCc1c(C(=O)OCC)[nH]c(C)c1C(=O)OCc1ccccc1
inactive: [3] 100 % of control | [4] 101 % of control | [5] 108 % of control

O=c1[nH]c2cccnc2c(=O)n1O
inactive: dose: 175.0 mg/kg/injection, schedule: Q04DX003 (ip), vehicle: carboxymethylcellulose (CMC) 108 % of control | dose: 350.0 mg/kg/injection, schedule: Q04DX003 (ip), vehicle: carboxymethylcellulose (CMC) 92 % of control

Reference: PubChem BioAssay AID248 (DTP/NCI, 2004)
